How the values were obtained:
Assay type in all cases: in vivo
[1] = tested on: Alopecurus myosuroides (ALOMY); experiment: Herbicidal pre-emergence action, section C (Table C2); conditions: visual grading after ca. 3 weeks vs untreated controls; for pest or weed control at 320 g/ha / pre-emergence activity against ALOMY in %: application rate 320 g/ha
Description: (§1) Seeds of mono- and dicotyledonous weed plants and crop plants were sown, in plastic or organic planting pots, in sandy loam and covered with soil. The compounds according to the invention, formulated in the form of wettable powders (WP) or as emulsifiable concentrates (EC), were applied to the surface of the covering soil as aqueous suspension or emulsion, with the addition of 0.5% of an additive, at an application rate of 600 l of water/ha (converted). Following treatment, the pots were placed in a greenhouse and kept under optimum growth conditions for the test plants. The visual grading of the damage to the test plants was carried out after ca. 3 weeks in comparison to untreated controls (herbicidal effect in percent (%): 100% effect=plants have died off, 0% effect=as control plants).

[2] = tested on: Matricaria inodora (MATIN); experiment: Herbicidal pre-emergence action, section C (Table C6); conditions: visual grading after ca. 3 weeks
Description: as §1

[3] = tested on: Veronica persica (VERPE); experiment: Herbicidal pre-emergence action, section C (Table C10); conditions: Veronica persica, pre-emergence, 504 h, visual grading after ca. 3 weeks, read-out: pre-emergence activity against VERPE in %; for pest or weed control at 320 g/ha: application rate 320 g/ha
Description: as §1

[4] = tested on: Zea mays (ZEAMX); experiment: Pre-emergence effects on crop plants, section D (Table D1); conditions: visual grading after ca. 3 weeks
Summary of the method: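 Pre-emergence soil-surface spray, 320 g/ha or below, 600 l water/ha + 0.5% additive; WP/EC formulations; sandy loam; greenhouse; visual % damage vs untreated at ~3 wk.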

[5] = tested on: Poa annua (POAAN); experiment: Herbicidal pre-emergence action, section A (Table A7); conditions: visual grading after ca. 3 weeks vs untreated controls; for pest or weed control at 320 g/ha: Poa annua, pre-emergence, 504 h, read-out: pre-emergence activity against POAAN in %
Summary of the method: (§2)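 Read-out is visual herbicidal effect in percent (100% = plants died, 0% = as control), graded ca. 3 weeks after treatment. Test compounds as WP or EC were applied to covering soil over sown seeds with 0.5% additive, 600 l water per hectare; greenhouse growth.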

[6] = tested on: Setaria viridis (SETVI); experiment: Herbicidal pre-emergence action, section A (Table A8); conditions: application rate 320 g/ha; for pest or weed control at 320 g/ha: Setaria viridis, 504 h, read-out: pre-emergence activity against SETVI in %
Summary of the method: as §2

[7] = tested on: Amaranthus retroflexus (AMARE); experiment: Herbicidal pre-emergence action, section A (Table A11); conditions: application rate 320 g/ha; for pest or weed control at 320 g/ha: Amaranthus retroflexus, 504 h, read-out: pre-emergence activity against AMARE in %
Summary of the method: as §2

[8] = tested on: Setaria viridis (SETVI); experiment: Herbicidal post-emergence action, section B (Table B8); conditions: application rate 1280 g/ha, visual rating about 3 weeks after treatment vs untreated controls
Summary of the method: (§3)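 Potted weeds in sandy loam are treated post-emergence at the one-leaf stage, 2 to 3 weeks after sowing. The spray is an aqueous WP or EC preparation with 0.5% additive at 600 liters per hectare. Percent activity is assessed by eye after about 3 weeks versus untreated controls.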

[9] = tested on: Stellaria media (STEME); experiment: Herbicidal post-emergence action, section B (Table B9); conditions: visual rating about 3 weeks after treatment vs untreated controls; for pest or weed control at 1280 g/ha: Stellaria media, post-emergence, 504 h, read-out: post-emergence activity against STEME in %
Summary of the method: as §3

[10] = tested on: Amaranthus retroflexus (AMARE); experiment: Herbicidal post-emergence action, section B (Table B11); conditions: visual rating about 3 weeks after treatment vs untreated controls; for pest or weed control at 1280 g/ha: Amaranthus retroflexus, post-emergence, 504 h, application rate 1280 g/ha, read-out: post-emergence activity against AMARE in %; for post-emergence activity against AMARE in %: application rate 320 g/ha
Summary of the method: as §3

[11] = tested on: Echinochloa crus-galli (ECHCG); experiment: Herbicidal post-emergence action, section E (Table E5); conditions: application rate 320 g/ha, visual assessment ca. 3 weeks after spraying
Description: Seeds of mono- and dicotyledonous weed plants and crop plants were sown, in plastic or organic planting pots, in sandy loam, covered with soil and grown in a greenhouse under controlled growth conditions. 2 to 3 weeks after sowing, the test plants were sprayed in the single-leaf stage. The compounds according to the invention, formulated in form of wettable powders (WP) or as emulsifiable concentrates (EC), were sprayed onto the green plant parts as aqueous suspension or emulsion, with the addition of 0.5% of an additive, at an application rate of 600 l of water/ha (converted). The test plants were placed in the greenhouse for ca. 3 weeks under optimum growth conditions, and then the effect of the preparations was assessed visually in comparison with untreated controls (herbicidal effect in percent (%): 100% effect=plants have died off, 0% effect=as control plants).

[12] = Alopecurus myosuroides, pre-emergence, 504 h, read-out: pre-emergence activity against ALOMY in %

CC(C)C(=O)N1C[S+]([O-])c2cc(Br)c(-c3ccccc3)nc21 (stereo not shown) [Example I-067]
pest or weed control at 320 g/ha [1, 12]: 90%
pest or weed control at 320 g/ha ([2]; Tripleurospermum inodorum, pre-emergence, 504 h, application rate 320 g/ha, read-out: pre-emergence activity against MATIN in %): 80%
pest or weed control at 320 g/ha [3]: 80%
pre-emergence activity against ZEAMX in % (crop plant damage) ([4]; application rate 320 g/ha): 20%

CCS(=O)(=O)N1C[S+]([O-])c2cc(C)c(-c3ccccc3C)nc21 (stereo not shown) [Example I-074]
pest or weed control at 320 g/ha ([5]; application rate 320 g/ha): 100%
pest or weed control at 320 g/ha [6]: 100%
pest or weed control at 320 g/ha [7]: 90%
pest or weed control at 1280 g/ha ([8]; Setaria viridis, post-emergence, 504 h, read-out: post-emergence activity against SETVI in %): 90%
pest or weed control at 1280 g/ha ([9]; application rate 1280 g/ha): 90%
pest or weed control at 1280 g/ha [10]: 90%
pest or weed control at 80 g/ha ([1]; Alopecurus myosuroides, pre-emergence, 504 h, application rate 80 g/ha, read-out: pre-emergence activity against ALOMY in %): 80%
pest or weed control at 80 g/ha ([3]; application rate 80 g/ha): 80%
pre-emergence activity against ZEAMX in % (crop plant damage) ([4]; application rate 80 g/ha): 0%

Cc1cc2c(nc1-c1ccccc1)N(C(=O)C1(C)CC(Cl)=NO1)CS2 (stereo not shown) [Example I-088]
pre-emergence activity against POAAN in % ([5]; application rate 320 g/ha): 100%
pre-emergence activity against SETVI in % [6]: 100%
pre-emergence activity against AMARE in % [7]: 90%
post-emergence activity against SETVI in % [8]: 90%
post-emergence activity against STEME in % ([9]; application rate 320 g/ha): 90%
post-emergence activity against AMARE in % [10]: 90%
pre-emergence activity against ALOMY in % [1]: 90%
pre-emergence activity against MATIN in % ([2]; application rate 320 g/ha): 90%
pre-emergence activity against ZEAMX in % (crop plant damage) ([4]; application rate 320 g/ha): 0%

Cc1cc2c(nc1-c1ccccc1F)N(C(=O)C13CCCC1C(Cl)=NO3)CS2 (stereo not shown) [Example I-104]
pre-emergence activity against POAAN in % ([5]; application rate 320 g/ha): 100%
pre-emergence activity against SETVI in % [6]: 100%
pre-emergence activity against AMARE in % [7]: 90%
post-emergence activity against SETVI in % [8]: 90%
post-emergence activity against STEME in % ([9]; application rate 320 g/ha): 90%
post-emergence activity against AMARE in % [10]: 90%
pre-emergence activity against ALOMY in % [1]: 100%
pre-emergence activity against MATIN in % ([2]; application rate 800 g/ha (so in the source)): 90%
pre-emergence activity against ZEAMX in % (crop plant damage) ([4]; application rate 80 g/ha): 0) %
post-emergence activity against ECHCG in % [11]: 80%

Cc1cc2c(nc1-c1cccc(C)c1F)NCS2 [Example I-113]
pre-emergence activity against POAAN in % ([5]; application rate 1280 g/ha): 100%
pre-emergence activity against SETVI in % [6]: 100%
pre-emergence activity against AMARE in % [7]: 90%
post-emergence activity against STEME in % ([9]; application rate 1280 g/ha): 90%
pre-emergence activity against ZEAMX in % (crop plant damage) ([4]; application rate 320 g/ha): 0%
post-emergence activity against ECHCG in % [11]: 80%

CC1(C(=O)N2CSc3cc(Br)c(-c4ccccc4Cl)nc32)CC(Cl)=NO1 (stereo not shown) [Example I-141, [6-bromo-5-(2-chlorophenyl)[1,3]thiazolo[4,5-b]pyridin-3(2H)-yl](3-chloro-5-methyl-4,5-dihydro-1,2-oxazol-5-yl)methanone]
pest or weed control at 320 g/ha ([5]; application rate 320 g/ha): 100%
pest or weed control at 320 g/ha [6]: 100%
pest or weed control at 320 g/ha [7]: 100%
pest or weed control at 1280 g/ha ([9]; application rate 1280 g/ha): 90%
pest or weed control at 1280 g/ha [10]: 90%
pest or weed control at 320 g/ha [1, 12]: 80%
pest or weed control at 320 g/ha [3]: 90%
pre-emergence activity against ZEAMX in % (crop plant damage) ([4]; application rate 80 g/ha): 0%

From patent US20240381872A1, “SUBSTITUTED 2,3-DIHYDRO[1,3]THIAZOLO[4,5-B]PYRIDINES, SALTS THEREOF AND THEIR USE AS HERBICIDALLY ACTIVE SUBSTANCES” (BAYER AKTIENGESELLSCHAFT, priority 2021, published 2024)
